# Source: patent US20240051939A1, “BENZOPYRAZOLE INHIBITORS OF SARM1” (Disarm Therapeutics, Inc., priority 2020, published 2024)
# Biological target: SARM1 (Homo sapiens (Human), UniProt Q6SZW1)
# Assay: ARM-SAM-TIR SARM1 IC50 assay (NADase activity, NAD+ cleavage)
# Assay type: biochemical
# Conditions: ARM-SAM-TIR lysate 5 μg/mL, 2 h pre-incubation, 5 μM NAD+, RapidFire MS readout
# Method: This Example describes an assay of ARM-SAM-TIR NADase activity and use of this assay to measure the efficacy of compounds of Formula I to block SARM1 mediated NAD+ cleavage. This assay was optimized in such a way as to characterize the efficacy of the compounds in Formula I to inhibit SARM1 activity and to calculate an IC50 value for each compound. This assay makes use of full length SARM1, which encompasses the ARM, SAM and TIR domains.
# NRK1-HEK293T cells were seeded onto 150 cm^2 plates at 20×10^6 cells per plate. The next day, the cells were transfected with 15 μg ARM-SAM-TIR expression plasmid, SEQ ID NO: 1.
# The cultures were supplemented with 1 mM NR at time of transfection to minimize toxicity from ARM-SAM-TIR overexpression. […] Protein concentration was determined by the Bicinchoninic (BCA) method and used to normalize lysate concentrations.
# The enzymatic assay was performed in a 384-well polypropylene plate in Dulbecco's PBS buffer in a final assay volume of 20 μL. […] The NAD+ and ADPR concentrations were analyzed by a RapidFire High Throughput Mass Spectrometry System (Agilent Technologies, Santa Clara, CA) using an API4000 triple quadrupole mass spectrometer (AB Sciex Framingham, MA).
# Chain of SARM1 (Q6SZW1 other isoform, or with tags, fused parts or gaps): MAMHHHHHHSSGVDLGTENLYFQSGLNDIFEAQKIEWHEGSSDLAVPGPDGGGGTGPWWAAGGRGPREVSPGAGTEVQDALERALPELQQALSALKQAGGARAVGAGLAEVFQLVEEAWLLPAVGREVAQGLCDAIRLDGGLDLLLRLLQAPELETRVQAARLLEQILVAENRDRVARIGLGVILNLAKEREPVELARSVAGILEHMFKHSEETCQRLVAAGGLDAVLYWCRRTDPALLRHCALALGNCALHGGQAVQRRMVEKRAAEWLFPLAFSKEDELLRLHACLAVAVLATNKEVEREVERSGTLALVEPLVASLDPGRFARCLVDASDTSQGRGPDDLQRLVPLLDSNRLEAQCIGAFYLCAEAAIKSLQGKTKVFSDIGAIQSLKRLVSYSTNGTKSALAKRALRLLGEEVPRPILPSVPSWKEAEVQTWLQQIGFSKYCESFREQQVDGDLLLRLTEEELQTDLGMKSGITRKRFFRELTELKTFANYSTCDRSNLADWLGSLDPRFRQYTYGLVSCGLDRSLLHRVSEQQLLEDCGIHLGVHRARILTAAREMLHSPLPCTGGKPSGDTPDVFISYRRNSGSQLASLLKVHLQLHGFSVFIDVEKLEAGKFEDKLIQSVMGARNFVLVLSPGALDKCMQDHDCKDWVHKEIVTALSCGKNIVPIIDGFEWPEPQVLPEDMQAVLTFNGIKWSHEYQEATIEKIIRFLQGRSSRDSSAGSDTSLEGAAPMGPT
row,IC50,Structure (SMILES)
1,101 to 500 nM,Clc1ccc(CCc2n[nH]c3cc(-c4ccncc4)ccc23)cc1 [Compound I-1]
2,101 to 500 nM,Clc1ccc(CCc2n[nH]c3cc(-c4ccncc4)ccc23)cn1 [Compound I-2]
